Source: ChEMBL document CHEMBL1151717, “In vivo active aldosterone synthase inhibitors with improved selectivity: lead optimization providing a series of pyridine substituted 3,4-dihydro-1H-quinolin-2-one derivatives” (J Med Chem, 2008)

Legend:
CYP19 (aromatase) = target: T1, CYP19 (aromatase) (Homo sapiens, UniProt P11511); test: Inhibition of human placental CYP19 at 500 nM; type: functional
T1 sequence (P11511 whole entry): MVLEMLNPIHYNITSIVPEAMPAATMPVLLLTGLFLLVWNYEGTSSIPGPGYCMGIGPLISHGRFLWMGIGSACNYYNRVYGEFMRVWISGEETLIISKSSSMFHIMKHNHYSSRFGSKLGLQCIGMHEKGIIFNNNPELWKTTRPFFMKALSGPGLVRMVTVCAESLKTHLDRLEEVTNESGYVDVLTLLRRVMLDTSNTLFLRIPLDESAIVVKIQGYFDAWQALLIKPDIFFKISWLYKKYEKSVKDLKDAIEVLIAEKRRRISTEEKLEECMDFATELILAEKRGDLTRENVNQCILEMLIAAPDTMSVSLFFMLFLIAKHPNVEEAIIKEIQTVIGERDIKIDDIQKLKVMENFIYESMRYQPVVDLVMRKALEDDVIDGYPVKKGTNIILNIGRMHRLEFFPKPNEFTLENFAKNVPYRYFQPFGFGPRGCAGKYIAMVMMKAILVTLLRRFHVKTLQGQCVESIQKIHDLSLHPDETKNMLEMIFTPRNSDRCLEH

Rattus norvegicus [1] = test: Reduction of ACTH-induced aldosterone level in Wistar rat plasma at 20 mg/kg, iv administered 16 hrs after ACTH challenge after 0.5 to 3 hrs; design: scale not given: the % may be the effect or the level left
[2] = Tmax in Wistar rat at 25 mg/kg, po; type: ADME, organism-based; design: dose 25 mg/kg, route oral; settings: in vivo
Cytochrome P450 2C19 = Cytochrome P450 2C19 (Homo sapiens, UniProt P33261); test: Inhibition of human recombinant CYP2C19 expressed in baculovirus-infected insect microsomes; type: ADME, Microsome; settings: read-out: IC50
[3] = Cmax in Wistar rat at 25 mg/kg, po; type: ADME, organism-based; design: dose 25 mg/kg, route oral; settings: in vivo
[4] = AUC (0 to infinity) in Wistar rat at 25 mg/kg, po; type: ADME, organism-based; design: time infinity, dose 25 mg/kg, route oral; settings: plasma
[5] = Terminal half life in Wistar rat at 25 mg/kg, po; type: ADME, organism-based; design: dose 25 mg/kg, route oral; settings: in vivo, read-out: beta t1/2 (converted)
Rattus norvegicus [6] = test: Plasma concentration in Wistar rat at 25 mg/kg, po after 0.5 to 8 hrs; type: ADME, organism-based; design: dose 25 mg/kg, route oral; settings: in vivo
Homo sapiens = species: Homo sapiens; test: Selectivity ratio, IC50 for human CYP11B1 to IC50 for human CYP11B2
[7] = AUC (0 to infinity) in Wistar rat at 5 mg/kg, po by cassette dosing; type: ADME, organism-based; design: time infinity, dose 5 mg/kg, route oral; settings: plasma
[8] = Terminal half life in Wistar rat at 5 mg/kg, po by cassette dosing; type: ADME, organism-based; design: dose 5 mg/kg, route oral; settings: in vivo, read-out: beta t1/2 (converted)
[9] = Cmax in Wistar rat at 5 mg/kg, po by cassette dosing; type: ADME, organism-based; design: dose 5 mg/kg, route oral; settings: in vivo
[10] = Tmax in Wistar rat at 5 mg/kg, po by cassette dosing; type: ADME, organism-based; design: dose 5 mg/kg, route oral; settings: in vivo
[11] = Protein binding in rat plasma at 3 uM after 1 hr; type: ADME, cell-free; settings: read-out: PPB (converted)
U-937 = test: Cytotoxicity against human U937 cells assessed as reduction of survival fraction at >100 uM by fluorimetric alamar blue assay; type: cell-based
[12] = Protein binding in human plasma at 3 uM after 1 hr; type: ADME, cell-free; settings: read-out: PPB (converted)

Sequence of Cytochrome P450 2C19 (P33261 whole entry): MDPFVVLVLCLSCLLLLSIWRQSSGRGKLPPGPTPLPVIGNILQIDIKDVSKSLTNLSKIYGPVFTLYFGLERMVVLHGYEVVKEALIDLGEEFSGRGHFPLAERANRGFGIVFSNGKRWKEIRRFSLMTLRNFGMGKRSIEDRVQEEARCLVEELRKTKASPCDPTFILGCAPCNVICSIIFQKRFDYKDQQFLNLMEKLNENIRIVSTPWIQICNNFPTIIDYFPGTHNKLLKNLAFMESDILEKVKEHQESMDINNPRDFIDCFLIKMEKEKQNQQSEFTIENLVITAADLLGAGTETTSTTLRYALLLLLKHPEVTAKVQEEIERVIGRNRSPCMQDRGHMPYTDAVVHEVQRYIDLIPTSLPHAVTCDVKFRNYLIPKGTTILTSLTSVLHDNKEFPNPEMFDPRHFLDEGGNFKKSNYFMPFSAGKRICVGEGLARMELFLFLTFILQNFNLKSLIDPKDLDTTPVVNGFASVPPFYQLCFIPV

inhibition at 0.5 µM (CYP19 (aromatase)) | Tmax [2] | IC50 (Cytochrome P450 2C19) | Cmax [3] | AUC(0-inf) [4] | half-life [5] | Cp (Rattus norvegicus [6]) | Ratio IC50 (Homo sapiens) | AUC(0-inf) [7] | half-life [8] | Cmax [9] | Tmax [10] | fraction unbound at 1 h, 3 µM [11] | fraction unbound at 1 h, 3 µM [12] | Compound | Activity (Rattus norvegicus [1]) | Activity (U-937)
< 5% | 2 h | 9.2 µM | 134 ng/mL | 1660 ng·h/mL | 174 min | 90 ng/mL | 187 | – | – | – | – | – | – | O=C1CCc2cc(-c3cncc4ccccc34)ccc2N1 | 36% | –
58% | – | 45.4 µM | – | – | – | – | 106 | 212 ng·h/mL | 234 min | 35 ng/mL | 4 h | – | – | COc1cncc(-c2ccc3c(c2)CCC(=O)C3)c1 | – | –
31% | – | 41.5 µM | – | – | – | – | 496 | 727 ng·h/mL | 210 min | 104 ng/mL | 4 h | 0.75 | 0.76 | O=C1CCc2cc(-c3cccnc3)ccc2C1 | – | Toxic
